# Test results published in patent US20240299481A1, “STEPHANIA CEPHARANTHA-DERIVED ALKALOID-CONTAINING PREPARATION” (JAPAN AS REPRESENTED BY DIRECTOR-GENERAL OF NATIONAL …, priority 2021, published 2024).
# How the values were obtained:
# [1] = tested on: Novel coronavirus SARS-COV-2 Wk-521 strains (Wuhan strain); type: cell-based; settings: for antiviral effect compared with the preparation / other alkaloids: Wuhan strain, VeroE6/TMPRSS2 cells
# VeroE6/TMPRSS2 cells = type: cell-based; settings: 24 hours, FIG. 2A-2E
# Procedure: VeroE6/TMPRSS2 cells were cultured at 37° C. in 5% of a CO2 atmosphere by using Dulbecco's Modified Eagle's Medium (DMEM, Life Technologies Corporation) added with 10% of a fetal bovine serum (FBS, Cell Culture Bioscience Corporation), 100 units/ml of penicillin, 100 μg/ml of streptomycin, 10 mM of HEPES (pH7.4) and 1 mg/ml of G418 disulfate (Nacalai Tesque, Inc.). In infection tests, it was changed to 2% of FBS and no G418 disulfate was added.
# The Stephania cepharantha-derived alkaloid-containing preparation, Cepharanthine, Isotetrandrine, Cycleanine, or Berbamine were added to the medium of the VeroE6/TMPRSS2 cells and, and the cells cultured for 24 hours were fixed with 4% of paraformaldehyde, and nucleuses were stained with DAPI. Thereafter, the number of viable cells were measured using an ImageXpress Micro Confocal (Molecular Device, LLC).
# SARS coronavirus = settings: cited from earlier work
# [2] = tested on: human coronavirus OC43 strain; settings: early stage of infection in cells, MRC-5 human lung cells; cited from earlier work
SMILES,antiviral effect (number of viral RNA with increasing addition concentration) [1],antiviral effect compared with the preparation / other alkaloids [1],cytotoxic effect (number of viable cells with increasing addition concentration) (VeroE6/TMPRSS2 cells),antiviral effect against the SARS coronavirus (SARS coronavirus),antiviral effects on the human coronavirus OC43 strain [2]
COc1cc2c3c(c1OC)Oc1ccc(cc1)C[C@@H]1c4c(cc(OC)c(OC)c4Oc4ccc(cc4)C[C@H]3N(C)CC2)CCN1C [Cycleanine],showed antiviral effects,comparable to the Stephania cepharantha-derived alkaloid-containing preparation,showed cytotoxic effects,,
COc1cc2c3cc1Oc1c(OC)c(OC)cc4c1[C@@H](Cc1ccc(O)c(c1)Oc1ccc(cc1)C[C@@H]3N(C)CC2)N(C)CC4 [Berbamine],showed antiviral effects,weak antiviral effect,showed cytotoxic effects,,
COc1ccc2cc1Oc1ccc(cc1)C[C@H]1c3cc(c(OC)cc3CCN1C)Oc1c(OC)c(OC)cc3c1[C@@H](C2)N(C)CC3 [Isotetrandrine],showed antiviral effects,comparable to the Stephania cepharantha-derived alkaloid-containing preparation,showed cytotoxic effects,,
COc1ccc2cc1Oc1ccc(cc1)C[C@H]1c3c(cc4c(c3Oc3cc5c(cc3OC)CCN(C)[C@@H]5C2)OCO4)CCN1C [Cepharanthine],showed antiviral effects,comparable to the Stephania cepharantha-derived alkaloid-containing preparation,showed cytotoxic effects,has an antiviral effect,have antiviral effects
